Test results as given in ChEMBL document CHEMBL1150976, “The selectivity of protein kinase inhibitors: a further update” (Biochem J, 2007).
Values belong to the compound of their own block, whether it stands above or below them.

Assays:
[1] = target: T1, Serine/threonine-protein kinase PLK1 (Homo sapiens, UniProt P53350); assay: Percentage PLK1 activity remaining in the presence of 2uM inhibitor
[2] = target: Protein kinase C alpha type (Homo sapiens) (UniProt P17252); assay: Percentage PKCalpha activity remaining in the presence of 2uM inhibitor
[3] = target: Homeodomain-interacting protein kinase 2 (Homo sapiens) (UniProt Q9H2X6); assay: Percentage HIPK2 activity remaining in the presence of 2uM inhibitor; conditions: filed as antagonist
Homeodomain-interacting protein kinase 2 (Homo sapiens), sequence (Q9H2X6 whole entry, looked up): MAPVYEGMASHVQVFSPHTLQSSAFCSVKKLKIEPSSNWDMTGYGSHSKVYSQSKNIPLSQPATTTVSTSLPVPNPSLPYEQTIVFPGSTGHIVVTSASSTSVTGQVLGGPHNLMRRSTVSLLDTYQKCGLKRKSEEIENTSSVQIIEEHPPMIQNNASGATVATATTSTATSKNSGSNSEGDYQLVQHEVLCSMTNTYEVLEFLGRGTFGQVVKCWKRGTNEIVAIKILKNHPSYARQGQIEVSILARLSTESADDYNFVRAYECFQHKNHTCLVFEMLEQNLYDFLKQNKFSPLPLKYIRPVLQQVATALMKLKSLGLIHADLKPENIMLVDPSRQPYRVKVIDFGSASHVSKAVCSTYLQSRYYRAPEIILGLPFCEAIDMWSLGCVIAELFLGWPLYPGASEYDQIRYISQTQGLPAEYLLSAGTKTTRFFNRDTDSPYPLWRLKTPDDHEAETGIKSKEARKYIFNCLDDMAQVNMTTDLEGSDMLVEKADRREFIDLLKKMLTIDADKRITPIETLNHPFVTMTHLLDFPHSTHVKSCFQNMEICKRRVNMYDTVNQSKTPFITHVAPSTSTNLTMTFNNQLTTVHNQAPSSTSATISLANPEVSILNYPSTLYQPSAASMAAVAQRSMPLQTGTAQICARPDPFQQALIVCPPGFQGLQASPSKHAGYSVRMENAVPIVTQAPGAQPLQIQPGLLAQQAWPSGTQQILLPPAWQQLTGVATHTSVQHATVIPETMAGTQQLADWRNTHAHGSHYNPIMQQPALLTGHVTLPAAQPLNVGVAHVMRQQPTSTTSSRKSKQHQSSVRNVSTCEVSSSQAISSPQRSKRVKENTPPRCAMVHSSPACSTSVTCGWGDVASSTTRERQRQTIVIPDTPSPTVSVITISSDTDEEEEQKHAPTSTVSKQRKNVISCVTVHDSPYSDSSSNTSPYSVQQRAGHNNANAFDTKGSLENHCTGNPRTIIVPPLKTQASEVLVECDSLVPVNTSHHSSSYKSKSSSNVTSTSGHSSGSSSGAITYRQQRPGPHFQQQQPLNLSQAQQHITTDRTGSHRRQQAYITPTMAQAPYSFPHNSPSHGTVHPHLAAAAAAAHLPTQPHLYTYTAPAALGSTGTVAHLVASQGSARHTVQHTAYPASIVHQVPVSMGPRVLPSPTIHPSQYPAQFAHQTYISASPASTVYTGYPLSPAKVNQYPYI

[4] = target: T2, Mitogen-activated protein kinase 12 (Homo sapiens) (UniProt P53778); assay: Percentage p38-gamma activity remaining in the presence of 2uM inhibitor
T2 sequence (whole entry): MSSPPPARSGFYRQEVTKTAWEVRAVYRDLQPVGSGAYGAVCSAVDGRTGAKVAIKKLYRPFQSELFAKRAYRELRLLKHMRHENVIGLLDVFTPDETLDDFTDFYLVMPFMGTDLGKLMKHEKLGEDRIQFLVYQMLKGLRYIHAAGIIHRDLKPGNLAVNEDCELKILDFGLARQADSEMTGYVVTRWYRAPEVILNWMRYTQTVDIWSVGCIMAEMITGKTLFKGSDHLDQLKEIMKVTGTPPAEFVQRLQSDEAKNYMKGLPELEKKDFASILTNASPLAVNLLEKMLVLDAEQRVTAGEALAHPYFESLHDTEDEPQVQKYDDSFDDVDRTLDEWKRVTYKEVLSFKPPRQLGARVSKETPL

[5] = target: Serine/threonine-protein kinase Nek7 (Homo sapiens) (UniProt Q8TDX7); assay: Percentage NEK7 activity remaining in the presence of 2uM inhibitor
Serine/threonine-protein kinase Nek7 (Homo sapiens), sequence (Q8TDX7 whole entry, looked up): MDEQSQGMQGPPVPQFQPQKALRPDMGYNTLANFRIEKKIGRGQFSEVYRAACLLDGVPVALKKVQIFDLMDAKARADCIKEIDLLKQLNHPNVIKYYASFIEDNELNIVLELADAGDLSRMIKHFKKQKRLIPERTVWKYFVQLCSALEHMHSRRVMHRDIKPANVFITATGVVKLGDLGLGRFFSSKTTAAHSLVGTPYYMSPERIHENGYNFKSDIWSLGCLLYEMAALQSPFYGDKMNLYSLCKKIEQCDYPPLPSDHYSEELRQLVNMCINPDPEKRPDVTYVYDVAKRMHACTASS

[6] = target: MAP kinase-interacting serine/threonine-protein kinase 1 (Homo sapiens) (UniProt Q9BUB5); assay: Percentage MNK1 activity remaining in the presence of 2uM inhibitor
Aurora kinase B = Aurora kinase B (Homo sapiens, UniProt Q96GD4); assay: Percentage Aurora B activity remaining in the presence of 2uM inhibitor
Aurora kinase B, sequence (Q96GD4 whole entry): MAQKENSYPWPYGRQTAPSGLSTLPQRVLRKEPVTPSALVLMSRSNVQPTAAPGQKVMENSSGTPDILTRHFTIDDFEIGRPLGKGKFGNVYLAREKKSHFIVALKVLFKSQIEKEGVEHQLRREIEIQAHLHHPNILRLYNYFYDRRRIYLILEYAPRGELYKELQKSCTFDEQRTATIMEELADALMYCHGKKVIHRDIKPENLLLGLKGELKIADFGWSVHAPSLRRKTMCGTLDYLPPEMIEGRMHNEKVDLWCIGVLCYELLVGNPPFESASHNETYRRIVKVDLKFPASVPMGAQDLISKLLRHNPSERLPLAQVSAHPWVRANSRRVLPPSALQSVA

Rattus norvegicus = species on record: Rattus norvegicus; assay: Percentage AMPK activity remaining in the presence of 3uM inhibitor
[7] = target: T3, Serine/threonine-protein kinase Nek2 (Homo sapiens) (UniProt P51955); assay: Percentage NEK2a activity remaining in the presence of 3uM inhibitor
T3 sequence (whole entry): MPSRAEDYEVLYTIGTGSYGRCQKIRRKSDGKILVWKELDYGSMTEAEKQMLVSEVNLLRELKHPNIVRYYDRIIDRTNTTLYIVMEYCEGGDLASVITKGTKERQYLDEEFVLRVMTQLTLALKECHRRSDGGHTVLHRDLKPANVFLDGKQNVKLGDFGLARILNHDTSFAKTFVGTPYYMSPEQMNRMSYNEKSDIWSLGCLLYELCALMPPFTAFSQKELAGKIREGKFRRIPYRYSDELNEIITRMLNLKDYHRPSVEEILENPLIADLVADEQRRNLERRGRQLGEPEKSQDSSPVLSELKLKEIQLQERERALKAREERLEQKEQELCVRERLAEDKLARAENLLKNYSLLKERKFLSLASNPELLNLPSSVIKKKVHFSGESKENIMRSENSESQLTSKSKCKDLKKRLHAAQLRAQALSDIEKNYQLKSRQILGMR

[8] = target: T4, Aurora kinase C (Homo sapiens) (UniProt Q9UQB9); assay: Percentage Aurora C activity remaining in the presence of 3uM inhibitor
T4 sequence (whole entry): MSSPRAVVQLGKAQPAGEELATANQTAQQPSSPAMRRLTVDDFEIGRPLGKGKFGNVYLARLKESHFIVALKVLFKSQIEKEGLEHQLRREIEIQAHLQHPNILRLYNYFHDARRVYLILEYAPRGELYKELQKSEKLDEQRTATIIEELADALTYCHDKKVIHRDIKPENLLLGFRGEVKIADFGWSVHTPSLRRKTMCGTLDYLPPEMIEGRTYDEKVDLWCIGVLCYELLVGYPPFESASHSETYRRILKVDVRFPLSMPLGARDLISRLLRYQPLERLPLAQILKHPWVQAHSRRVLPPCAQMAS

[9] = target: T2, Mitogen-activated protein kinase 12 (Homo sapiens); assay: Percentage p38-gamma activity remaining in the presence of 3uM inhibitor
[10] = target: Cyclin-dependent kinase 2/cyclin A (Homo sapiens) (UniProt P24941+P20248+P78396); assay: Percentage CDK2-cyclinA activity remaining in the presence of 3uM inhibitor; format: protein-complex assay
[11] = target: T1, Serine/threonine-protein kinase PLK1; assay: Percentage PLK1 activity remaining in the presence of 3uM inhibitor
[12] = target: Casein kinase I isoform delta (Homo sapiens, UniProt P48730); assay: Percentage CK1delta activity remaining in the presence of 3uM inhibitor
[13] = target: Proto-oncogene tyrosine-protein kinase Src (Gallus gallus) (UniProt P00523); assay: Percentage Src activity remaining in the presence of 3uM inhibitor; conditions: filed as antagonist
[14] = target: T5, Dual specificity tyrosine-phosphorylation-regulated kinase 3 (Homo sapiens) (UniProt O43781); assay: Percentage DYRK3 activity remaining in the presence of 3uM inhibitor
T5 sequence (whole entry): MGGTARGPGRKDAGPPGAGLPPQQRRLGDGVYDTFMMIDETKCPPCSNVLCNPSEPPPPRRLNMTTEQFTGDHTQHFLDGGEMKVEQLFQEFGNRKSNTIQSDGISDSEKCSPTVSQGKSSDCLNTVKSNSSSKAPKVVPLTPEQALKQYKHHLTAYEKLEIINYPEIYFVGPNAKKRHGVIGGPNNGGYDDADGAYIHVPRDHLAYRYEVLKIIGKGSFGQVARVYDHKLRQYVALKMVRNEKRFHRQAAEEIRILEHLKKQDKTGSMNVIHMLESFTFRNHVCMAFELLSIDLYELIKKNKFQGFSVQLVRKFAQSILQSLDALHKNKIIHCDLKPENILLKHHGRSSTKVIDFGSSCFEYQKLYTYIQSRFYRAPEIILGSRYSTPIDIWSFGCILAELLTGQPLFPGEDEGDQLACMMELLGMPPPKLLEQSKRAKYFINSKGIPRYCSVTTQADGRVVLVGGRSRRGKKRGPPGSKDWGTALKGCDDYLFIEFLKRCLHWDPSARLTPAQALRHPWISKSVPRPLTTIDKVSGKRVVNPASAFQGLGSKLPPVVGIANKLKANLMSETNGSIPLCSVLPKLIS

[15] = target: Mitogen-activated protein kinase 3 (Homo sapiens) (UniProt P27361); assay: Percentage ERK1 activity remaining in the presence of 3uM inhibitor
Mitogen-activated protein kinase 3 (Homo sapiens), sequence (P27361 whole entry): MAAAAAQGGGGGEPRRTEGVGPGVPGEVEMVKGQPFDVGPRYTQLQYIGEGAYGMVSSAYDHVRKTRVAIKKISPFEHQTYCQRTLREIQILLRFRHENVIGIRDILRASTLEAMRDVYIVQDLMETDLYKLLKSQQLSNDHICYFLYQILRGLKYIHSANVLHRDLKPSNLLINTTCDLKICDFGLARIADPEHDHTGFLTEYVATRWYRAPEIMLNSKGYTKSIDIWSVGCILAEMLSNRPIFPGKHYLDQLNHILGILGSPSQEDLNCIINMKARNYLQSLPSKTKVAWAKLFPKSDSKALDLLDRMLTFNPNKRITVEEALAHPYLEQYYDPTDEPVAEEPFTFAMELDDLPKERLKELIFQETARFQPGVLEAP

[16] = target: Homeodomain-interacting protein kinase 2 (Homo sapiens) (UniProt Q9H2X6); assay: Percentage HIPK2 activity remaining in the presence of 3uM inhibitor
[17] = target: Serine/threonine-protein kinase pim-3 (Homo sapiens, UniProt Q86V86); assay: Percentage PIM3 activity remaining in the presence of 3uM inhibitor
[18] = target: Protein kinase C alpha type (Homo sapiens) (UniProt P17252); assay: Percentage PKCalpha activity remaining in the presence of 3uM inhibitor
[19] = target: Homeodomain-interacting protein kinase 3 (Homo sapiens) (UniProt Q9H422); assay: Percentage HIPK3 activity remaining in the presence of 3uM inhibitor
[20] = target: Ribosomal protein S6 kinase alpha-1 (Homo sapiens) (UniProt Q15418); assay: Percentage RSK1 activity remaining in the presence of 3uM inhibitor
Ribosomal protein S6 kinase alpha-1 (Homo sapiens), sequence (Q15418 whole entry): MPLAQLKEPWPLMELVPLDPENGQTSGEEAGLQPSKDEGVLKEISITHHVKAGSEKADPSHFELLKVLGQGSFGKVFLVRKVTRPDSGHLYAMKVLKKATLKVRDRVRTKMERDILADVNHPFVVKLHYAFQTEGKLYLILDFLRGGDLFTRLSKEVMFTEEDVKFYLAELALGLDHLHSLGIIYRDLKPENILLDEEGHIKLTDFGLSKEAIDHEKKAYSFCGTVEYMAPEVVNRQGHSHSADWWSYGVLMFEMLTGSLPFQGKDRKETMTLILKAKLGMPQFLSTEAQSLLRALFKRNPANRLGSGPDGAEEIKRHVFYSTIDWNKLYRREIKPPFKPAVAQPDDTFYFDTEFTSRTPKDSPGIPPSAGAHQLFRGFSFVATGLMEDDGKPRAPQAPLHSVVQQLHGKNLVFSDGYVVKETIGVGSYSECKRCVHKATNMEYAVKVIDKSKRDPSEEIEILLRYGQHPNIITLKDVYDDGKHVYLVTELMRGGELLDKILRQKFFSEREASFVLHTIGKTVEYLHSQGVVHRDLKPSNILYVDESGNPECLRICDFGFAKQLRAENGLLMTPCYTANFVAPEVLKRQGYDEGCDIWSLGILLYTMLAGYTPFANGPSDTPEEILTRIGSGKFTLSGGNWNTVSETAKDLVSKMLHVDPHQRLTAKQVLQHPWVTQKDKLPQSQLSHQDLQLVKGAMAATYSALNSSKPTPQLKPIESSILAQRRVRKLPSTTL

[21] = target: Tyrosine-protein kinase CSK (Homo sapiens, UniProt P41240); assay: Percentage CSK activity remaining in the presence of 3uM inhibitor
Tyrosine-protein kinase CSK, sequence (P41240 2-450 limits assumed): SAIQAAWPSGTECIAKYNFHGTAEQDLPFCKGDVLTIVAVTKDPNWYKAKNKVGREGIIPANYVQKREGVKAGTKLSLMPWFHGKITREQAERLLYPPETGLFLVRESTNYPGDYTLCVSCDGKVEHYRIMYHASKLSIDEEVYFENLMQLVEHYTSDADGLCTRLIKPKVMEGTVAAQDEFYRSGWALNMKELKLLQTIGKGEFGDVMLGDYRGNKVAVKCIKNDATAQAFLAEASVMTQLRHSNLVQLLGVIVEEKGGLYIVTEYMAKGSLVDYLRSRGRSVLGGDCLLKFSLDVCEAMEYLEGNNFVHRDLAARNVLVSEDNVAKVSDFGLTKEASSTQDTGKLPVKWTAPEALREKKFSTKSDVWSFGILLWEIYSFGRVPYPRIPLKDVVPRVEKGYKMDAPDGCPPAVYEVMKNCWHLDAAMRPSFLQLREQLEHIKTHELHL

T1 sequence (P53350 whole entry): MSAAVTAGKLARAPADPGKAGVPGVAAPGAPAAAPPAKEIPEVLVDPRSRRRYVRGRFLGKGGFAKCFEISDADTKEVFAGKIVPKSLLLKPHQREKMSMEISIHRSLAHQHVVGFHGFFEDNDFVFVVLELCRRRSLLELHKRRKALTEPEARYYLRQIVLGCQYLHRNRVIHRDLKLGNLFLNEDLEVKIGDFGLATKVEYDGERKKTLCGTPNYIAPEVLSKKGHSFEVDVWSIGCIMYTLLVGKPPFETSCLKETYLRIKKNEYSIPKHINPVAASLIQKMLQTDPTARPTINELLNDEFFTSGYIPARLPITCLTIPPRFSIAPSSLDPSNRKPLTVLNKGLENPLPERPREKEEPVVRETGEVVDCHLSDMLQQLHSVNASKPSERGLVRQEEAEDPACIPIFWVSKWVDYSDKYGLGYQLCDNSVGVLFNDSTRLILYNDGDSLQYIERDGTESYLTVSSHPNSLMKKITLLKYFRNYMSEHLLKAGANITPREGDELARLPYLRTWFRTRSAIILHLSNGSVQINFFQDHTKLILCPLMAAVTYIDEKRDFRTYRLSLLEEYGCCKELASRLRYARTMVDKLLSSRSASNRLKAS

- Activity [1]: 62%
- Activity [2]: 73%
- Activity [3]: 15%
- Activity [4]: 84%
- Activity [5]: 85%
- Activity [6]: 85%
- Activity (Aurora kinase B): 87%
Compound: Cn1cc(C2=C(c3ccc(Cl)cc3Cl)C(=O)NC2=O)c2ccccc21

- Activity (Rattus norvegicus): 79%
- Activity [7]: 95%
- Activity [8]: 75%
- Activity [9]: 92%
- Activity [10]: 80%
- Activity [11]: 82%
- Activity [12]: 63%
- Activity [13]: 10%
- Activity [14]: 68%
- Activity [15]: 92%
- Activity [16]: 79%
- Activity [17]: 56%
- Activity [18]: 85%
- Activity [19]: 79%
- Activity [20]: 92%
- Activity [21]: 55%
Compound: Cc1ccc(-c2c(C(=O)CF)n(CCCO)c3ncnc(N)c23)cc1
